Measured values from ChEMBL document CHEMBL1201862, “PubChem BioAssay data set” (2004).
The source made the active and inactive calls.

Tests used:
[1] = biological target: Peroxisome proliferator-activated receptor gamma/Nuclear receptor coactivator 3 (Homo sapiens, UniProt P37231); test: (§1) TR-FRET dose response biochemical High Throughput Screening assay for agonists of the steroid receptor coactivator 3 (SRC-3) recruitment by the peroxisome proliferator-activated receptor gamma (PPAR gamma): non-selective agonists. [Related pubchem assays: 1301 (Confirmation screen.), 1048 (Primary screen.)]; assay type: functional
[2] = biological target: Peroxisome proliferator-activated receptor gamma/Nuclear receptor coactivator 1 (Homo sapiens, UniProt P37231); test: as §1, with “1 (SRC-1)” for “3 (SRC-3)”, “assays (depositor defined):AID1300, AID1808, AID504735, AID631]” for “assays: 1301 (Confirmation screen.), 1048 (Primary screen.)]”; assay type: protein assay
[3] = biological target: Peroxisome proliferator-activated receptor gamma/Nuclear receptor coactivator 2 (Homo sapiens, UniProt P37231); test: TR-FRET dose response biochemical High Throughput Screening assay for agonists of the steroid receptor coactivator 2 (SRC-2) recruitment by the peroxisome proliferator-activated receptor gamma (PPAR gamma): non-selective agonists. [Related pubchem assays: 1297, 1032 ]; assay type: functional
[4] = biological target: T1, Replicative DNA helicase DnaB (Mycobacterium tuberculosis, UniProt P9WMR3); test: DnaB intein splicing inhibitors, dose response, biochemical, cell-free fluorescence (AID 449749); assay type: functional
T1 sequence (P9WMR3 whole entry): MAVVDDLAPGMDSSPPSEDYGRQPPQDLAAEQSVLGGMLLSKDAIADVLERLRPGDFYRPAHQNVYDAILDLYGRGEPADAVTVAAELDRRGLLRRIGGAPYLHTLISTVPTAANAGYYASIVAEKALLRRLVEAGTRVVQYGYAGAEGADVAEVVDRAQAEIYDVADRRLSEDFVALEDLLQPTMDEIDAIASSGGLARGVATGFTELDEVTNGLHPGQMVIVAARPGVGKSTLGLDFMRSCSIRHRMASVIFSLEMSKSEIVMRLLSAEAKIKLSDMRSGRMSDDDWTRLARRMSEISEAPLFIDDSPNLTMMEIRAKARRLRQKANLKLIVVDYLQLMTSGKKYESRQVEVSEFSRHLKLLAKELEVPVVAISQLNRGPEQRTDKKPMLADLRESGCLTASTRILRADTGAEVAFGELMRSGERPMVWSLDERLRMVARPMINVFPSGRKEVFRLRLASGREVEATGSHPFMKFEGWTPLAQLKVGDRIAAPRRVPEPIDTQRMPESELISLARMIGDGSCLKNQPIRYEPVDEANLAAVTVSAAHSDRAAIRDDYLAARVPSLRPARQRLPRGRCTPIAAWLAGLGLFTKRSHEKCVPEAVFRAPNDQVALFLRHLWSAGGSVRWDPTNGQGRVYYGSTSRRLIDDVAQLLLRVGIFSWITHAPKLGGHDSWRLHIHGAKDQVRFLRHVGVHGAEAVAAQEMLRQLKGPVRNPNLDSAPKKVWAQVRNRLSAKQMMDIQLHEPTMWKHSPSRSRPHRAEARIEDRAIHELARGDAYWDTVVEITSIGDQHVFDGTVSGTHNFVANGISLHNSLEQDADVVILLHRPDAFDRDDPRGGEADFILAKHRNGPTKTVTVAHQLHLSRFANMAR

[5] = Shn3 3'UTR reporter inhibitors, dose response, cell-based, Clone20 osteoblasts, firefly luciferase, cherry-picked (AID 624132); assay type: functional;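 also: firefly luciferase luminescence from reporter carrying the Shn3 3'UTR in osteoblasts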
[6] = system: HEK293; test: cells; details: Homo sapiens
[7] = HepG2 cell cytotoxicity, dose response, cytotoxicity control for Shn3 inhibitor project, CellTiter-Glo, cherry-picked (AID 624134); assay type: functional, cell-based
[8] = system: HEK293; test: cells; details: Homo sapiens; remark: listed apart in the source
[9] = biological target: T2, Protein RecA (Mycobacterium tuberculosis, UniProt P9WHJ3); test: Fluorescence Cell-Free Homogeneous Dose Retest to Identify Inhibitors of RecA-Intein Splicing Activity. [Related pubchem assays (depositor defined):AID2097, AID2223, AID489010, AID492950]; assay type: functional
T2 sequence (P9WHJ3 whole entry): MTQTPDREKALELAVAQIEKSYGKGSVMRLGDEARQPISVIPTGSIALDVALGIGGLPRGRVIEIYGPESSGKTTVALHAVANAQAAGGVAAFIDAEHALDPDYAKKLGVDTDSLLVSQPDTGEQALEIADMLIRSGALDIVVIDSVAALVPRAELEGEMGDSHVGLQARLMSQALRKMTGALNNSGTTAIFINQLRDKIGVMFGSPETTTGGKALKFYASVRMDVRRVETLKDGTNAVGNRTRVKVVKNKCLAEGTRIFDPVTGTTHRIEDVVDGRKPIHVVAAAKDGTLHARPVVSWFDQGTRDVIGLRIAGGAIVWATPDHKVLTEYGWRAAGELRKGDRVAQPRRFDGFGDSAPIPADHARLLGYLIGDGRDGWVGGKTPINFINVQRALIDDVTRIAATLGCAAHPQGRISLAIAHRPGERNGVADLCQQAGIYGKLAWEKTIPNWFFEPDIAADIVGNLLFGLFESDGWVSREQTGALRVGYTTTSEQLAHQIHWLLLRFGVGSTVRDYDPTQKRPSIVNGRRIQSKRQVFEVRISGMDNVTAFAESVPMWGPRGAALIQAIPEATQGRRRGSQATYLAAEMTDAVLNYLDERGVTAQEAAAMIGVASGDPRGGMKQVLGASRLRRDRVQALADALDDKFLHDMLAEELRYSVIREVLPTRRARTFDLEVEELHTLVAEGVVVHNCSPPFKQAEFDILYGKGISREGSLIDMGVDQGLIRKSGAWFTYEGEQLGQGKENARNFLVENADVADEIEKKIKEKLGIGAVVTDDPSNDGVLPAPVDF

[10] = control 3'UTR Renilla luciferase suppression, dose response, counter-screen for Shn3 inhibitor project, cell-based, Clone20-Shn3RL, cherry-picked (AID 624133); assay type: functional
[11] = biological target: T3, Heat shock factor protein 1 (Mus musculus, UniProt P38532); test: inhibition of MG132-induced HSE-luciferase signal, confirmation, cell-based, NIH3T3, luminescence, dose retest (AID 2382); assay type: functional;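 also: NIH3T3 fibroblasts with HSF1-driven luciferase reporter stressed by proteasome inhibitor MG132; luminescence from HSF1-driven luciferase expression after 8 hours of MG132 stress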
T3 sequence (P38532 whole entry): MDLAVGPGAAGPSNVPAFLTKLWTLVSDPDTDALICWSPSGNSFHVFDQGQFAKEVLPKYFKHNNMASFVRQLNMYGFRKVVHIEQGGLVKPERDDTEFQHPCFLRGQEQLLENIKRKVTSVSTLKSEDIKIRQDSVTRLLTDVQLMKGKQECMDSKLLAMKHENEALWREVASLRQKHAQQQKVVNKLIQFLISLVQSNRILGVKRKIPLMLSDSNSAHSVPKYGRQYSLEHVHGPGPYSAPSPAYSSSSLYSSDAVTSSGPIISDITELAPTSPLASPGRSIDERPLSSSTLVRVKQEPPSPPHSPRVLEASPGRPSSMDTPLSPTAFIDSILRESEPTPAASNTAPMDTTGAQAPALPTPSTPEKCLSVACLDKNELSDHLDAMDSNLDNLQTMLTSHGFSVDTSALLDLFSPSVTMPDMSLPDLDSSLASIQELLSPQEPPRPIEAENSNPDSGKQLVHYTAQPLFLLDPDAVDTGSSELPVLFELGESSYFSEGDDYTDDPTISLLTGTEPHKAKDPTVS

[12] = cytotoxicity in HMLE control line with eGFP shRNA, dose response, counter-screen for HMLE_sh_ECad selective toxicity project, cell-based, HMLE_sh_eGFP, luminescence (AID 463074); assay type: functional, Homo sapiens;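 also: HMLE human mammary epithelial cells expressing control shRNA against eGFP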
[13] = Luminescence Cell-Based Dose Retest to Confirm Inhibitors of Cancer Stem Cells. [Related pubchem assays (depositor defined):AID2717, AID2721]; assay type: functional; details: Homo sapiens
[14] = biological target: Glucose-6-phosphate 1-dehydrogenase (Homo sapiens, UniProt P11413); test: human G6PD enzyme inhibitors, dose response, selectivity assay for P. falciparum G6PD inhibitor project, biochemical, fluorescence (AID 504792); assay type: functional
[15] = biological target: FAD-linked sulfhydryl oxidase ALR (Homo sapiens, UniProt P55789); test: inhibitors of human ALR sulfhydryl oxidase, dose response, biochemical, H2O2 detection, luminescence, cherry-pick (AID 493248)
Chain of FAD-linked sulfhydryl oxidase ALR (P55789 whole entry): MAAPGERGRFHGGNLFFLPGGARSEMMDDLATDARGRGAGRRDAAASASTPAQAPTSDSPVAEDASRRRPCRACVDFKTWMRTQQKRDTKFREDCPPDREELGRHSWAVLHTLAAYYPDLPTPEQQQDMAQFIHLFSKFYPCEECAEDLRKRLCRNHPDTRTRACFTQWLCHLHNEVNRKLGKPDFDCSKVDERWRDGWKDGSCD

Chain of Peroxisome proliferator-activated receptor gamma/Nuclear receptor coactivator 2 (P37231 whole entry): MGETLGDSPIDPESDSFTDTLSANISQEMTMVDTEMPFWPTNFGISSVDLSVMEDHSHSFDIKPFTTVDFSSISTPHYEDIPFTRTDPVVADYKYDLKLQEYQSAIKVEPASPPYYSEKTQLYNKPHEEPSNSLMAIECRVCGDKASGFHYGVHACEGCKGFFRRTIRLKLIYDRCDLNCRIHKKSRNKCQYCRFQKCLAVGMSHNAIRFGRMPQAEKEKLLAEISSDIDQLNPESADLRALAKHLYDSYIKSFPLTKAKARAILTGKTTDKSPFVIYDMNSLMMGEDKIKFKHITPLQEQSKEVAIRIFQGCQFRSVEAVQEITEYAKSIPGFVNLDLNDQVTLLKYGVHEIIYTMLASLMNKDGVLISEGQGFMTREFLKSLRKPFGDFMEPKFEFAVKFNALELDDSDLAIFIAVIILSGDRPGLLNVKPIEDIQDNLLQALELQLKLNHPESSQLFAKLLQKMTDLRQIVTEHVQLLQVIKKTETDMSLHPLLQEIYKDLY
Chain of Peroxisome proliferator-activated receptor gamma/Nuclear receptor coactivator 2 (Q15596 whole entry, further chain): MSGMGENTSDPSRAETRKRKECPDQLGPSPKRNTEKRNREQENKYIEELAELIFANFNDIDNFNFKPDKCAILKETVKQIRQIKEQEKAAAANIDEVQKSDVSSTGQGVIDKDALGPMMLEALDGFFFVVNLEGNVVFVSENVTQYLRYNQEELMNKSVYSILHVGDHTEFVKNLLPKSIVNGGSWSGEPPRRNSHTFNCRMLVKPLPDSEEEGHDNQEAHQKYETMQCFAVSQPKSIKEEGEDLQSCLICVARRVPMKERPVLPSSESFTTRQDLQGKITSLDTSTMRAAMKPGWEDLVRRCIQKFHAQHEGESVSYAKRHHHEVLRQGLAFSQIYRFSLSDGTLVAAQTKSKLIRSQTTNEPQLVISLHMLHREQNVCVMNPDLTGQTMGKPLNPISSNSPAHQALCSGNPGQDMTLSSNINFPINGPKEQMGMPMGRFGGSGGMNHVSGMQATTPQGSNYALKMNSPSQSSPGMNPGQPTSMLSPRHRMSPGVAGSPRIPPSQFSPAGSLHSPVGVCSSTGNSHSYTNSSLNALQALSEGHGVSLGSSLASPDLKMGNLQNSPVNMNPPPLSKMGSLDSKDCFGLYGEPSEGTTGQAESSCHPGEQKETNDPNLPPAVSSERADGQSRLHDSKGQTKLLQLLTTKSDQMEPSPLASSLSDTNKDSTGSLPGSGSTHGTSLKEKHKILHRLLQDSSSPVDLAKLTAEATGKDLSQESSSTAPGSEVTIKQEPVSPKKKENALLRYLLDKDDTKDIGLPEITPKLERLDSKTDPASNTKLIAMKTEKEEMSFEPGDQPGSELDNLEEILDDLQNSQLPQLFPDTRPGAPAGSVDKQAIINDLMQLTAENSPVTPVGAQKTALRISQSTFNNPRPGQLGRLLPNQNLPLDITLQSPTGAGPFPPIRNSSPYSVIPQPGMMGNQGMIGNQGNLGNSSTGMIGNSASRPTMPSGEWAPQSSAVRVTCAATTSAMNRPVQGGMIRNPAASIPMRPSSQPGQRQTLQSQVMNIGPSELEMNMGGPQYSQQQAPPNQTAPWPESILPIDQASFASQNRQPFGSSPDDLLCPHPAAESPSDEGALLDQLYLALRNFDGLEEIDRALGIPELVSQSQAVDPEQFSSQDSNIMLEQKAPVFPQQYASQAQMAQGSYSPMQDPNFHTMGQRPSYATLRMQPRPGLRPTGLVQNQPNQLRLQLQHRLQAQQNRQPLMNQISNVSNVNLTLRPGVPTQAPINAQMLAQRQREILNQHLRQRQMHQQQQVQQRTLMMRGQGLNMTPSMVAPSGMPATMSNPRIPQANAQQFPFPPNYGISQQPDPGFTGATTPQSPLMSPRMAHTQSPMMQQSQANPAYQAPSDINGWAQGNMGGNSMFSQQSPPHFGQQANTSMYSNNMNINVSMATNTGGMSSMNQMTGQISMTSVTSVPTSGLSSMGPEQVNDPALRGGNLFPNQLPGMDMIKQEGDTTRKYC
Chain of Peroxisome proliferator-activated receptor gamma/Nuclear receptor coactivator 1 (P37231 whole entry): as the sequence (P37231 whole entry) above
Chain of Peroxisome proliferator-activated receptor gamma/Nuclear receptor coactivator 1 (Q15788 whole entry, further chain): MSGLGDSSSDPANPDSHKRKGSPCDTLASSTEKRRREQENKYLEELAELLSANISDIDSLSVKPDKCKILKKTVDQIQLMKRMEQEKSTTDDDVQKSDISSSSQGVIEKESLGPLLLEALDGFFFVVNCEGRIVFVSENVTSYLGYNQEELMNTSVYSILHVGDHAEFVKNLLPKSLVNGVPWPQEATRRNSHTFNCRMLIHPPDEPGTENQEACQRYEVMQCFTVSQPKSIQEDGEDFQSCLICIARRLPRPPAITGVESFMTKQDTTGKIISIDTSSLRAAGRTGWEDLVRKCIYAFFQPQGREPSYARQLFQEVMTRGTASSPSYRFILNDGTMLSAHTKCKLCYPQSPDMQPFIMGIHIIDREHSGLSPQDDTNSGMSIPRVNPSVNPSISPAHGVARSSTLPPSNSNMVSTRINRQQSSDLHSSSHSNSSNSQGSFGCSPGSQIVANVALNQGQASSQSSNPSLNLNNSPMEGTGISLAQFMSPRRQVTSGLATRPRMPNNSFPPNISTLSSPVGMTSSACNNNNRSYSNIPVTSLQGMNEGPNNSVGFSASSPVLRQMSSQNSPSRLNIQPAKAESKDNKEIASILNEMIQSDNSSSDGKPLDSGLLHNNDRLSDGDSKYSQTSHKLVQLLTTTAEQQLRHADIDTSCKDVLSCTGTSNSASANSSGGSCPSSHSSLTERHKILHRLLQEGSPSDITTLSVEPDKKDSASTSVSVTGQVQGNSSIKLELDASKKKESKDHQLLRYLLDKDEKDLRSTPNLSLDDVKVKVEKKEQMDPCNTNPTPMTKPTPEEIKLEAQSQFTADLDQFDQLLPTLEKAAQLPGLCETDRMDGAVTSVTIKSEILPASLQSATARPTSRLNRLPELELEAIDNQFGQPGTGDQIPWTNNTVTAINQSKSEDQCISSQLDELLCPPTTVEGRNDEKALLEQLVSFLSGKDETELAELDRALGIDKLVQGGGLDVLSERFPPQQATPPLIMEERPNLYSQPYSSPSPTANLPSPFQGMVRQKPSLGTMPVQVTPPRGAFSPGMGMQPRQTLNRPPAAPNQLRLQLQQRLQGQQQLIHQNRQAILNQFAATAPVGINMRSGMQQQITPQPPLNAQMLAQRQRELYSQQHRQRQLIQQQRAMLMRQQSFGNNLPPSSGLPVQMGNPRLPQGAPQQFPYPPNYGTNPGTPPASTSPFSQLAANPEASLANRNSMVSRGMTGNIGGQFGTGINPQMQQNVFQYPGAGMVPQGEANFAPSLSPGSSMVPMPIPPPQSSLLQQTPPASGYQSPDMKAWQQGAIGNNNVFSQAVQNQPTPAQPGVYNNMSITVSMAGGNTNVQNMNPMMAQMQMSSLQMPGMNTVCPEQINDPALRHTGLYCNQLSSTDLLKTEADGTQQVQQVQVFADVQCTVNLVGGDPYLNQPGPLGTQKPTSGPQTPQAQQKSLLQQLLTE
Chain of Glucose-6-phosphate 1-dehydrogenase (P11413 whole entry): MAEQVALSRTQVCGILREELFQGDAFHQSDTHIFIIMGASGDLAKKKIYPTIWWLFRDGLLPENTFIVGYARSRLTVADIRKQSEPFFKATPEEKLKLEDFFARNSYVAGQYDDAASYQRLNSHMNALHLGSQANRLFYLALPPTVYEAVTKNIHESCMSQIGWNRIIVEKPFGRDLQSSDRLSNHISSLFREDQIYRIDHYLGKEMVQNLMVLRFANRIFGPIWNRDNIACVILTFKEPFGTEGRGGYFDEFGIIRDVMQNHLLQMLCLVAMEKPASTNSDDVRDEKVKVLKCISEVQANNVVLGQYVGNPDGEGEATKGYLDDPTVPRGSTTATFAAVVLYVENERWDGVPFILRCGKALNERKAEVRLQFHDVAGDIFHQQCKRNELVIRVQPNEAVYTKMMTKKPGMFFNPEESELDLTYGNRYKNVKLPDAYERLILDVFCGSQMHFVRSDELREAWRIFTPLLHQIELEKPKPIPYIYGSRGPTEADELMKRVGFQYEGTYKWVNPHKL

## Sc1nnc(-c2cc(-c3ccco3)[nH]n2)n1-c1ccccc1
[1]
  EC50: > 79.4 µM (not active)
[2]
  EC50: > 79.4 µM (inactive)
[3]
  EC50: > 79.4 µM (not active)

## CCSc1cnn(-c2ccccc2)c(=O)c1SCC
[1]
  EC50: > 79.4 µM (not active)
[2]
  EC50: 54.2 µM (inactive)
[3]
  EC50: 7.53 µM (active)

## O=C(NCc1ccccc1)c1nc(S(=O)(=O)Cc2ccccc2)ncc1Cl
[4]
  AC50: 2.72 µM (active)
[5]
  AC50: 1.19 µM (active)
[6]
  EC50: > 2.21 µM (active)
[7]
  AC50: 20.4 µM (active)
[8]
  EC50: > 59.6 µM (inactive)
[9]
  EC50: 4.88 µM (active)
[10]
  AC50: 10.8 µM (active)

## CC(C)(C)c1ccc(Cn2nnc3c(O)nc(C4CCN(C(=O)Cc5cccs5)CC4)nc32)cc1
[6]
  EC50: > 59.7 µM (inactive)
[8]
  EC50: > 59.7 µM (inactive)

## c1ccc2c(Nc3nc(-c4ccncc4)nc4ccccc34)cccc2c1
[11]
  EC50: > 195 µM (not active)
[12]
  AC50: 34 µM (active)
[13]
  AC50: 18.7 µM (active)

## COC(=O)c1sccc1NS(=O)(=O)c1ccc(OC)cc1
[12]
  AC50: 28.2 µM (active)
[13]
  AC50: 21.4 µM (active)

## COCCNC(=S)Nc1ccc(N2CCOCC2)c(S(=O)(=O)Nc2ccc(Cl)cc2)c1
[14]
  IC50: > 80 µM (inactive)

## NC(=O)C1=CC2C3C=CC2(O)C(=O)OC3O1 (stereo not given)
[6]
  EC50: > 59.7 µM (inactive)
[8]
  EC50: > 59.7 µM (inactive)

## COc1cc(/N=C/c2c(CO)cnc(C)c2O)cc(OC)c1OC
[15]
  AC50: 3.63 µM (active)
[14]
  IC50: > 80 µM (inactive)
